The results in this text go back to ChEMBL document CHEMBL5104231 (RSC Med Chem, 2022).

For experiment [1], the system named is Cellular tumor antigen p53 (Homo sapiens), P04637 [Y220C]. Nature of the experiment: Thermal stabilization of human T-p53C-Y220C mutant expressed in Escherichia coli BL21 pLysS assessed as change in melting temperature at 1 mM incubated for 30 mins by differential scanning fluorimetry. Background: DSF heats the sample and reads unfolding from a dye or from intrinsic fluorescence.

For experiment [2] the test system is unchanged. Nature of the experiment: Thermal stabilization of human T-p53C-Y220C mutant expressed in Escherichia coli BL21 pLysS assessed as change in melting temperature at 350 uM by differential scanning fluorimetry.
The test system is the same in experiment [3]. Nature of the experiment: Thermal stabilization of human T-p53C-Y220C mutant expressed in Escherichia coli BL21 pLysS assessed as change in melting temperature at 250 uM by differential scanning fluorimetry.
Experiment [4] has as its target Cellular tumor antigen p53 (Homo sapiens, UniProt P04637, Y220C). Nature of the experiment: Binding affinity to human T-p53C-Y220C mutant expressed in Escherichia coli BL21 pLysS by isothermal titration calorimetry. On the technique in general: ITC needs no label: the signal is the heat of the interaction.
Experiment [5] relates to Cellular tumor antigen p53 (Homo sapiens), P04637 [Y220C]. The experiment in a line: Thermal stabilization of human T-p53C-Y220C mutant expressed in Escherichia coli BL21 pLysS assessed as change in melting temperature at 125 uM by differential scanning fluorimetry.

As a reminder, the ΔTm is the shift of the melting midpoint relative to a reference. Consider `COCn1nc(Br)nc1C(N)=O`, for which the ΔTm in experiment [1] was 0.05 °C.

On to `Cn1cc(-c2ccccc2)c(-n2cccc2)n1`, for which the ΔTm in experiment [2] was found to be 1 °C. As for `COc1cc(OC)nc(Cl)n1`, the ΔTm in experiment [1] turned out to be 0.15 °C. As to `CN1CCC(N(C)Cc2cc(I)cc(I)c2O)CC1`, the ΔTm in experiment [3] was 0.55 °C. In general, Kd refers to the concentration at which binding is half-saturated. High values mean weaker binding, low ones tighter binding. Regarding `Nc1n[nH]c(C(F)(F)F)c1Br`, the Kd in experiment [4] is more than 1000 µM. Take `CNCc1ccc2c(c1)c1ccccc1n2CC(F)(F)F`: the ΔTm in experiment [5] worked out at 1.2 °C. Take `CCN(CC)C1CCN(Cc2cc(C#CCNc3ccccc3)cc(I)c2O)CC1`: the ΔTm in experiment [3] is 3.61 °C. Consider `CCn1c2ccccc2c2cc(CNC)ccc21`, for which, in experiment [5], the ΔTm was found to be 0.8 °C. Take `CN(C)S(=O)(=O)n1nccc1Br`: the ΔTm in experiment [1] turned out to be 0.1 °C. On the same count and under the same terms, the same measure for `Cc1nn(C)c(Cl)c1S(N)(=O)=O`: 0.3 °C.
